From patent publication US11261201B2 (priority 2018, dated 2022)
Values after ≈ are worked out from the molar mass of the structure shown. Counter-ions that a name gives are not always drawn. Like-named read-outs stand apart in the source and are kept apart here.

How the values were obtained:
E. coli = assay: Gram negative MIC protocol (OD600, LB, 24 h); settings: Escherichia coli
Description: (§1) Overnight bacterial cultures were grown in LB with no added antibiotics at 37° C. with shaking. A 1:1000 dilution of these cultures into LB was exposed to concentration gradients of compounds in 96-well plates (100 μL per well assay volume). Resulting plates were incubated at 37° C. for 24 h without shaking, and OD600 was measured at the end of the incubation. MICs were determined as the lowest concentrations at which OD600 remained at baseline.

H37RvMA = assay: Tuberculosis Alamar Blue/Resazurin assay (MIC); format: cell-based; settings: Mycobacterium tuberculosis, H37RV, read-out: WT H37Rv MTB Activity
A. baumannii = assay: Gram negative MIC protocol (OD600, LB, 24 h); settings: Acinetobacter baumannii
Description: as §1

[1] = read-out: MIC E. coli delta-TolC LB Media, E. coli delta-TolC strain, LB media, 24 h, OD600
[2] = read-out: MIC WT E. coli LB Media, wild-type E. coli, LB media, 24 h, OD600
[3] = read-out: MIC A. baumannii LB Media, A. baumannii, LB media, 24 h, OD600
[4] = read-out: MIC E. coli delta-TolC LB Media, E. coli delta-TolC, LB media, OD600
[5] = read-out: MIC WT E. coli LB Media, WT E. coli, LB media, OD600
[6] = read-out: MIC A. baumannii LB Media

| SMILES | MIC (E. coli; [1]) | MIC (E. coli; [2]) | MIC (H37RvMA; WT H37Rv MTB) | MIC (A. baumannii; [3]) | MIC (E. coli; [4]) | MIC (E. coli; [5]) | MIC (H37RvMA) | MIC (A. baumannii; [6]) |
| --- | --- | --- | --- | --- | --- | --- | --- | --- |
| CC(CC1CCCCC1)NCc1ccccc1OCC1CN(C2CC2)C(=O)O1 (stereo not shown) [B367] | 5 µM (≈ 1.93 µg/mL) | 150 µM (≈ 58 µg/mL) | > 150 µM | 150 µM (≈ 58 µg/mL) |  |  |  |  |
| CCN1CC(COc2ccccc2CNCCC2=CCCCC2)OC1=O (stereo not shown) [B368] | 20 µM (≈ 7.17 µg/mL) | > 150 µM | > 150 µM | > 150 µM |  |  |  |  |
| CCN1CC(COc2ccccc2CNC(C)CC2CCCCC2)OC1=O (stereo not shown) [B369] | 3 µM (≈ 1.12 µg/mL) | > 150 µM | > 150 µM | > 150 µM |  |  |  |  |
| O=C1OC(COc2ccccc2CNCCC2=CCCCC2)CN1C1CC1 (stereo not shown) [B370] | 12 µM (≈ 4.45 µg/mL) | > 150 µM | > 150 µM | > 150 µM |  |  |  |  |
| CN1CC(COc2ccccc2CNCCC2=CCCCC2)OC1=O (stereo not shown) [B371] | 33 µM (≈ 11.4 µg/mL) | > 150 µM | > 150 µM | > 150 µM |  |  |  |  |
| CC(CC1CCCCC1)NCc1ccccc1OCC1CN(C)C(=O)O1 (stereo not shown) [B372] | 5 µM (≈ 1.8 µg/mL) | 150 µM (≈ 54.1 µg/mL) | > 150 µM | > 150 µM |  |  |  |  |
| NC(=O)Nc1ccccc1CNCCC1CCCCC1 [B373] | 150 µM (≈ 41.3 µg/mL) | > 150 µM | > 150 µM | > 150 µM |  |  |  |  |
| c1cc(CNCCC2CCCCC2)c2c(c1)OCO2 [B374] | > 150 µM | > 150 µM | 150 µM (≈ 39.2 µg/mL) | > 150 µM |  |  |  |  |
| OCc1cccc(CNCCC2CCCCC2)c1 [B375] | > 150 µM | > 150 µM | > 150 µM | > 150 µM |  |  |  |  |
| OB(O)Cc1ccccc1CNCCC1CCCCC1 [B376, 2-((2-cyclohexylethylamino)methyl)benzylboronic acid] | 91 µM (≈ 25 µg/mL) | 150 µM (≈ 41.3 µg/mL) | > 150 µM | > 150 µM |  |  |  |  |
| CC(CC1CCCCC1)NCc1ccccc1OCC1CNC(=O)O1 (stereo not shown) [B377] | 2.3 µM (≈ 0.797 µg/mL) | 75 µM (≈ 26 µg/mL) | > 150 µM | 150 µM (≈ 52 µg/mL) |  |  |  |  |
| CC(CC1CCCCC1)NCc1ccccc1CCCO (stereo not shown) [B378, 3-(2-((1-cyclohexylpropan-2-ylamino)methyl)phenyl)propan-1-ol] | 7 µM (≈ 2.03 µg/mL) | 91 µM (≈ 26.3 µg/mL) | 150 µM (≈ 43.4 µg/mL) | 150 µM (≈ 43.4 µg/mL) |  |  |  |  |
| NS(=O)(=O)Cc1ccccc1CNCCC1CCCCC1 [B380] | 12 µM (≈ 3.73 µg/mL) | 33 µM (≈ 10.2 µg/mL) | > 150 µM | > 150 µM |  |  |  |  |
| CC(CC1CCCCC1)NCc1ccccc1OCc1ccccc1Br (stereo not shown) [B381] | 4 µM (≈ 1.67 µg/mL) | 55 µM (≈ 22.9 µg/mL) | 20.2 µM (≈ 8.41 µg/mL) | 55 µM (≈ 22.9 µg/mL) |  |  |  |  |
| CC(CC1CCCCC1)NCc1ccccc1OCc1ccccc1Cl (stereo not shown) [B382] | 3 µM (≈ 1.12 µg/mL) | 55 µM (≈ 20.5 µg/mL) | 12.2 µM (≈ 4.54 µg/mL) | 55 µM (≈ 20.5 µg/mL) |  |  |  |  |
| CC(CC1CCCCC1)NCc1ccccc1OCc1cccc(F)c1 (stereo not shown) [B383] | 2 µM (≈ 0.711 µg/mL) | 55 µM (≈ 19.6 µg/mL) | 12.2 µM (≈ 4.34 µg/mL) | 91 µM (≈ 32.4 µg/mL) |  |  |  |  |
| Cc1ccccc1COc1ccccc1CNC(C)CC1CCCCC1 (stereo not shown) [B384] | 4 µM (≈ 1.41 µg/mL) | 91 µM (≈ 32 µg/mL) | 20.2 µM (≈ 7.1 µg/mL) | 55 µM (≈ 19.3 µg/mL) |  |  |  |  |

| SMILES | MIC (E. coli; [1]) | MIC (E. coli; [2]) | MIC (H37RvMA; WT H37Rv MTB) | MIC (A. baumannii; [3]) | MIC (E. coli; [4]) | MIC (E. coli; [5]) | MIC (H37RvMA) | MIC (A. baumannii; [6]) |
| --- | --- | --- | --- | --- | --- | --- | --- | --- |
| CC(CC1CCCCC1)NCc1ccccc1OC1CCC1 (stereo not shown) [B385, N-(2-cyclobutoxybenzyl)-1-cyclohexylpropan-2-amine] | 2 µM (≈ 0.603 µg/mL) | 91 µM (≈ 27.4 µg/mL) | 90.9 µM (≈ 27.4 µg/mL) | 150 µM (≈ 45.2 µg/mL) |  |  |  |  |
| CC(CC1CCCCC1)NCc1ccccc1OCC1CC2CCC1C2 (stereo not shown) [B386, N-(2-(bicyclo[2.2.1]heptan-2-ylmethoxy)benzyl)-1-cyclohexylpropan-2-amine] | 5 µM (≈ 1.78 µg/mL) | > 150 µM | 20.2 µM (≈ 7.18 µg/mL) | 55 µM (≈ 19.6 µg/mL) |  |  |  |  |
| CC(CC1CCCCC1)NCc1ccccc1OC1CCCCC1 (stereo not shown) [B387, 1-cyclohexyl-N-(2-(cyclohexyloxy)benzyl)propan-2-amine] | 3 µM (≈ 0.989 µg/mL) | 91 µM (≈ 30 µg/mL) | 33.4 µM (≈ 11 µg/mL) | 55 µM (≈ 18.1 µg/mL) |  |  |  |  |
| CC(CC1CCCCC1)NCc1ccccc1OCc1ccccc1I (stereo not shown) [B388, 1-cyclohexyl-N-(2-((2-iodobenzyl)oxy)benzyl)propan-2-amine] | 7 µM (≈ 3.24 µg/mL) | 150 µM (≈ 69.5 µg/mL) | 33.4 µM (≈ 15.5 µg/mL) | 33 µM (≈ 15.3 µg/mL) |  |  |  |  |
| CC(CC1CCCCC1)NCc1ccccc1OC1CCCCC1C (stereo not shown) [B389, 1-cyclohexyl-N-(2-((2-methylcyclohexyl)oxy)benzyl)propan-2-amine] | 3 µM (≈ 1.03 µg/mL) | > 150 µM | 33.4 µM (≈ 11.5 µg/mL) | 91 µM (≈ 31.3 µg/mL) |  |  |  |  |
| CC(CC1CCCCC1)NCc1ccccc1OC1CC2CCC1C2 (stereo not shown) [B390, N-(2-(bicyclo[2.2.1]heptan-2-yloxy)benzyl)-1-cyclohexylpropan-2-amine] | 3 µM (≈ 1.02 µg/mL) | 150 µM (≈ 51.2 µg/mL) | 20.2 µM (≈ 6.9 µg/mL) | 55 µM (≈ 18.8 µg/mL) |  |  |  |  |
| CC1CCCC(Oc2ccccc2CNC(C)CC2CCCCC2)C1 (stereo not shown) [B391, 1-cyclohexyl-N-(2-((3-methylcyclohexyl)oxy)benzyl)propan-2-amine] | 3 µM (≈ 1.03 µg/mL) | 150 µM (≈ 51.5 µg/mL) | 20.2 µM (≈ 6.94 µg/mL) | 91 µM (≈ 31.3 µg/mL) |  |  |  |  |
| CCC1CCCCC1Oc1ccccc1CNC(C)CC1CCCCC1 (stereo not shown) [B392, 1-cyclohexyl-N-(2-((2-ethylcyclohexyl)oxy)benzyl)propan-2-amine] | 7 µM (≈ 2.5 µg/mL) | > 150 µM | 33.4 µM (≈ 11.9 µg/mL) | 150 µM (≈ 53.6 µg/mL) |  |  |  |  |
| CC(CC1CCCCC1)NCc1ccccc1OC1CC2CC1C1CCCC21 (stereo not shown) [B393, 1-cyclohexyl-N-(2-((octahydro-1H-4,7-methanoinden-5-yl)oxy)benzyl)propan-2-amine] | 7 µM (≈ 2.67 µg/mL) | > 150 µM | 20.2 µM (≈ 7.71 µg/mL) | 150 µM (≈ 57.2 µg/mL) |  |  |  |  |
| CC1CCC(Oc2ccccc2CNC(C)CC2CCCCC2)CC1 (stereo not shown) [B394, 1-cyclohexyl-N-(2-((4-methylcyclohexyl)oxy)benzyl)propan-2-amine] | 3 µM (≈ 1.03 µg/mL) | 150 µM (≈ 51.5 µg/mL) | 20.2 µM (≈ 6.94 µg/mL) | 55 µM (≈ 18.9 µg/mL) |  |  |  |  |
| CC(CC1CCCCC1)NCc1ccccc1OC1CC2CCC1CC2 (stereo not shown) [B395, N-(2-(bicyclo[2.2.2]octan-2-yloxy)benzyl)-1-cyclohexylpropan-2-amine] | 3 µM (≈ 1.07 µg/mL) | > 150 µM | 20.2 µM (≈ 7.18 µg/mL) | 33 µM (≈ 11.7 µg/mL) |  |  |  |  |
| CC(CC1CCCCC1)NCc1ccccc1OC1CCC(F)(F)CC1 (stereo not shown) [B396, 1-cyclohexyl-N-(2-((4,4-difluorocyclohexyl)oxy)benzyl)propan-2-amine] | 3 µM (≈ 1.1 µg/mL) | 150 µM (≈ 54.8 µg/mL) | 55.1 µM (≈ 20.1 µg/mL) | 150 µM (≈ 54.8 µg/mL) |  |  |  |  |
| CC(CC1CCCCC1)NCc1ccccc1NCc1ccccc1F (stereo not shown) [B397, 2-(((1-cyclohexylpropan-2-yl)amino)methyl)-N-(2-fluorobenzyl)aniline dihydrochloride] | 5 µM | > 150 µM | 12.2 µM | > 150 µM |  |  |  |  |
| CC(CC1CCCCC1)NCc1ccccc1NC(=O)c1ccccc1F (stereo not shown) [B398, N-(2-(((1-cyclohexylpropan-2-yl)amino)methyl)phenyl)-2-fluorobenzamide hydrochloride] |  |  | 150 µM | > 150 µM | 91 µM | > 150 µM |  |  |
| CC(CC1CCCCC1)NCc1ccccc1CCC(N)=O (stereo not shown) [B399, 3-(2-((1-cyclohexylpropan-2-ylamino)methyl)phenyl)propanamide trifluoroacetate] |  |  |  |  | 20 µM | 150 µM | > 150 µM | > 150 µM |
| COC(=O)CCc1ccccc1CNC(C)CC1CCCCC1 (stereo not shown) [B400, methyl 3-(2-((1-cyclohexylpropan-2-ylamino)methyl)phenyl)propanoate hydrochloride] |  |  | > 150 µM | > 150 µM | 55 µM | > 150 µM |  |  |
| CC(CC1CCCCC1)NCc1ccccc1CCC(=O)O (stereo not shown) [B401, 3-(2-((1-cyclohexylpropan-2-ylamino)methyl)phenyl)propanoic acid trifluoroacetate] |  |  |  |  | 33 µM | > 150 µM | > 150 µM | > 150 µM |
